≈ marks a conversion by molar mass, not a printed value. Where “and” joins values, the source holds several entries; their conditions need not be identical. Identical values can stand only once. Values belong to the molecule of their own block, whether it stands above or below them.
Columns and labels:
Anatidae = conditions: short-term; duration: 17 days; oral; feed; M; histopathology: nonneoplastic
Gallus gallus = conditions: for NOAEL: oral, diet, body weight
Meleagris sp. = conditions: short-term; duration: 3 weeks; oral; feed; F; body weight
Neovison vison = conditions: reproduction developmental; oral; diet; F; reproduction
Canidae = conditions: chronic, oral
Colinus virginianus = conditions: acute, oral, mortality
Phasianus sp. = conditions: acute; oral; unspecified; mortality
Bibionidae = conditions: chronic/long-term
Daphnia magna = conditions: chronic/long-term; duration: 21 days; reproduction
Lepomis macrochirus = conditions: acute; duration: 96 hours; mortality
Pimephales promelas = conditions: chronic/long-term
Ovis sp. = conditions: for LD50: acute, mortality
Sus scrofa = conditions: Not specified
Danio rerio = conditions: acute; duration: 96 hours; mortality
Cyprinodon variegatus = conditions: chronic/long-term; duration: 90 days; development
Neomysis kadiakensis = conditions: chronic/long-term; duration: 28 days; other
Mus musculus = conditions: chronic; duration: 104 weeks; clinical signs
Pontoscolex corethrurus = conditions: reproductive; duration: 56 days; mortality
Apis mellifera = conditions: acute, mortality
Folsomia candida = conditions: chronic/long-term; duration: 28 days; reproduction
Hypoaspis aculeifer = conditions: chronic/long-term; duration: 14 days; mortality

Compound: O=c1cc(O)c1=O [Moniliformin]
- NOAEL (Anatidae): 2.3 mg/kg-day
- NOAEL (Gallus gallus; chronic, duration: 14 months): 3.8 mg/kg-day
- NOAEL (Gallus gallus; subchronic, duration: 7 weeks): 1.4 mg/kg-day
- NOAEL (Meleagris sp.): 1.6 mg/kg-day
- NOAEL (Neovison vison): 0.92 mg/kg-day
- NOAEL (Rattus norvegicus; short-term, duration: 28 days, oral, gavage, M, Sprague-Dawley, clinical signs): 6 mg/kg-day

Compound: C[C@@H]1C/C=C/C=C/C=C/C=C/[C@H](O[C@@H]2O[C@H](C)[C@@H](O)[C@H](N)[C@@H]2O)C[C@@H]2O[C@](O)(C[C@@H](O)C[C@H]3O[C@@H]3/C=C/C(=O)O1)C[C@H](O)[C@H]2C(=O)O [Natamycin]
- NOAEL (Canidae; duration: 2 years, diet, M/F, Beagle, body weight): 6.25 mg/kg-day
- NOAEL (Rattus norvegicus; chronic, duration: 2 years, oral, diet, growth): 22.4 mg/kg-day

Compound: CNC(=O)CSP(=O)(OC)OC [Omethoate]
- NOAEL (Canidae; duration: 12 months, gavage, Dog Other, clinical chemistry): 0.025 mg/kg-day
- LD50 (Colinus virginianus): 9.9 mg/kg
- LD50 (Phasianus sp.): 29 mg/kg
- LC50 (Rattus norvegicus; acute, duration: 4 hours, inhalation, mortality): 0.287 µg/mL (≈ 1.35 µM)
- NOAEL (Rattus norvegicus; acute, oral, clinical signs): 0.2 mg/kg-day
- LOAEL (Rattus norvegicus; chronic, duration: 2 years, clinical chemistry): 0.04 mg/kg-day
- NOAEL (Rattus norvegicus; reproduction developmental, clinical chemistry): 0.03 mg/kg-day

Compound: CCOc1cc(Oc2ccc(C(F)(F)F)cc2Cl)ccc1[N+](=O)[O-] [Oxyfluorfen]
- NOEC (Bibionidae; duration: 28 days, development): 80 µg/L
- NOEC (Daphnia magna): 13 µg/L
- NOEC (Landoltia sp.; acute, duration: 14 days, frond number): 0.00195 mg/L
- LC50 (Lepomis macrochirus): 0.21 µg/mL (≈ 0.581 µM)
- NOEC (Pimephales promelas; duration: 34 days, reproduction): 38 µg/L

Compound: C=C(C)[C@@H]1NC(=O)[C@@H](NC)[C@@H](O)c2cc(Cl)c(O)c(c2)O[C@](C)(CC)[C@@H](C(=O)N2CC=C[C@H]2C(=O)N/C(C(=O)N/C(=C/C(=O)O)C(=O)O)=C(\C)CC)NC1=O [Phomopsin]
- LD50 (Ovis sp.; injection, subcutaneous): ≥ 0.017 mg/kg
- LD50 (Ovis sp.; oral): 1.34 mg/kg
- LOAEL (Ovis sp.; subchronic, clinical chemistry): 12.5 mg/kg-day
- LD50 (Sus scrofa; acute, mortality): 0.848 mg/kg

Compound: P [Phosphine]
- LC50 (Danio rerio): 0.048 µg/mL (≈ 1.41 µM)
- NOAEL (Rattus norvegicus; chronic, duration: 2 years, inhalation): 1.1 mg/kg-day
- NOAEL (Rattus norvegicus; reproduction developmental, inhalation, mortality): 1.9 mg/kg-day
- NOAEL (Rattus norvegicus; subchronic, duration: 90 days, inhalation, mortality): 1.1 mg/kg-day

Compound: Cc1nc(N(C)C)nc(OC(=O)N(C)C)c1C [Pirimicarb]
- LD50 (Colinus virginianus; duration: 2 hours, gavage, M/F): 20 mg/kg
- LD50 (Colinus virginianus; diet): 370 mg/kg

- LEL (Gallus gallus; repeat dose other, no effects): 5 mg/kg-day
- LEL (Sus scrofa; repeat dose other, no effects): 8 mg/kg-day
Compound: [I-].[K+] [Potassium iodide]

Compound: CC(C)(C)c1ccc(CSc2cnn(C(C)(C)C)c(=O)c2Cl)cc1 [Pyridaben]
- NOEC (Anas platyrhynchos; chronic/long-term): 10 mg/kg-day
- NOEC (Anas platyrhynchos; short-term, oral, feed, mortality): 659 mg/kg-day
- LD50 (Colinus virginianus): > 2250 mg/kg-day
- NOEC (Rattus norvegicus; chronic, M, body weight): 3.2 mg/kg-day

Compound: Fc1ccc(Oc2ccnc3cc(Cl)cc(Cl)c23)cc1 [Quinoxyfen]
- NOEC (Bibionidae; duration: 27 days): 128 µg/L
- NOEC (Cyprinodon variegatus): 0.00409 mg/L
- NOEC (Landoltia sp.; chronic/long-term, duration: 14 days): 0.149 mg/L
- NOEC (Neomysis kadiakensis): 0.00152 mg/L

Compound: Oc1cccc(O)c1 [Resorcinol]
- NOAEL (Mus musculus): 36 mg/kg-day
- NOAEL (Rattus norvegicus; chronic, duration: 103 weeks, oral, gavage, Fischer 344, neurology): 36 mg/kg-day

Compound: [Al+3].[Na+].[O-][Si]([O-])([O-])[O-] [Sodium aluminium silicate]
- LC50 (Danio rerio): > 100 µg/mL
- NOEC (Daphnia magna): 10000 µg/L
- NOEC (Pimephales promelas; duration: 30 days, growth): 86700 µg/L

Compound: O=C1[N-]S(=O)(=O)c2ccccc21.[Na+] [Sodium saccharin]
- NOEC (Pontoscolex corethrurus): 100 mg/kg

Compound: CN1COCN(Cc2cnc(Cl)s2)/C1=N/[N+](=O)[O-] [Thiamethoxam]
- LD50 (Apis mellifera; dermal): 0.024 µg/piece (2×) and 0.0121 µg/piece
- LD50 (Apis mellifera; duration: 48 hours, oral, unspecified): 0.00631 µg/piece
- LD50 (Apis mellifera; duration: 72 hours, dermal): 5.55 g/ha
- LD50 (Apis mellifera; oral, unspecified): 0.005 µg/piece (3×) and 0.00936 µg/piece

Compound: C[C@H]1CCCC(=O)CCC/C=C/c2cc(O)cc(O)c2C(=O)O1 [Zearalenone]
- NOEL (Sus scrofa; reproduction developmental, F, morphology): 0.01 mg/kg-day

Compound: C=C(C)[C@H]1CC=C(C)C(=O)C1 [d-Carvone]
- LC50 (Danio rerio): 56 µg/mL (≈ 373 µM)
- NOEC (Folsomia candida): 25 mg/kg
- NOEC (Hypoaspis aculeifer): ≥ 200 mg/kg
- NOEC (Landoltia sp.; acute, duration: 192 hours, frond number): 4.6 mg/L
- LD50 (Rattus norvegicus; acute, oral, mortality): > 2000 mg/kg-day
- NOAEL (Rattus norvegicus; reproduction developmental, organ weight): 30 mg/kg-day

Compound: Clc1ccc(C(c2ccc(Cl)cc2)C(Cl)Cl)cc1 [p,p'-DDD]
- NOAEL (Anas platyrhynchos; not reported, other): 0.06 mg/kg-day

Compound: ClC(Cl)=C(c1ccc(Cl)cc1)c1ccc(Cl)cc1 [p,p'-DDE]
- LOAEL (Anas platyrhynchos; reproductive, development): 0.6 mg/kg-day

From EPA's ToxValDB 9.5
